This note sets out measurements from paper PMC4267990 (Journal of controlled release : official journal of the …, 2014).

Converted amounts (≈) assume the structure as drawn. Read-outs that look alike come from different tables or passages of the source.

Data set [1] in a line: DOX pharmacokinetics after i.v. administration. The settings on record: 5 mg DOX/kg.
Another data set concerns 4T1.2 tumor. The data set can be described thus: In vivo antitumor efficacy, 4T1.2 syngeneic murine breast cancer model. More on the design: species or system female BALB/c mice. The settings on record: 10 mg DOX/kg i.v., three consecutive injections.
The next data set relates to KB 8-5 xenograft tumor. The data set is described as follows: In vivo antitumor efficacy, drug-resistant KB 8-5 xenograft. More on the design: species or system female nude mice. The settings on record: for Tumor growth inhibition rate IR: based on RTV on day 22.
Another data set concerns PC-3 xenograft tumor. The data set can be described thus: In vivo antitumor efficacy, PC-3 human prostate cancer xenograft. Also noted: species or system male nude mice. Particulars: 5 mg/kg i.v. on days 1, 4, 7; based on RTV on day 19.
The conditions of data set [2]: single i.v.; for Animal death: dead/treated mice.
In the next data set the test system is NCI/ADR-RES cells. The data set is described as follows: Intracellular uptake of DOX. The data set is classed as cell-based. The settings on record: 6 μg/mL DOX, 1 h (similar at 3 h).
Data set [3] in a line: In vitro DOX cumulative release kinetics by dialysis. The data set is classed as physicochemical. Particulars: DPBS pH 7.4 with 0.5% Tween 80, 37 °C, 1 mg DOX/mL.
Another data set concerns 4T1.2 cells. The data set is described as follows: In vitro cytotoxicity, MTT assay. The data set is classed as cell-based, mouse. Particulars: 72 h, DOX concentration.

For the compound `COc1cccc2c1C(=O)c1c(O)c3c(c(O)c1C2=O)C[C@@](O)(C(=O)CO)C[C@@H]3O[C@H]1C[C@H](N)[C@H](O)[C@H](C)O1` [DOX, Doxorubicin], the AUC in data set [1] worked out at 5430 ± 110 ng·h/mL. In data set [1], this compound had a CL of 18.40 ± 2.39 mL/h. This compound gave a distribution volume (Vd) in data set [1] of 25.32 ± 2.15 mL. Further, the t1/2 in data set [1] (non-compartment model) is 4.20 ± 0.35 h. In addition, in the data set on 4T1.2 tumor, the “mortality from systemic toxicity” value is given as “all of the mice treated with free DOX died from systemic toxicity on day 7”. In addition, the “Tumor growth inhibition rate IR” value amounted to 6.13% in the data set on KB 8-5 xenograft tumor (5 mg/kg i.v. on days 1, 4, 7); 20.91% in the data set on KB 8-5 xenograft tumor (7.5 mg/kg i.v. on days 1, 4, 7); 38.72% in the data set on PC-3 xenograft tumor. For the same compound, the body weight change result with KB 8-5 xenograft tumor (5 and 7.5 mg/kg i.v. on days 1, 4, 7) is “significant weight loss”. In addition, the Weight loss turned out to be 2.2% in data set [2] (5 mg/kg) and 7.8% in data set [2] (10 mg/kg). For the same compound, the Animal death in data set [2] (5 mg/kg) is given as 0/3; in data set [2] (10 mg/kg), 0/3; in data set [2] (15 mg/kg), 2/3; in data set [2] (15 mg/kg, listed as free DOX) it was 2 out of 3. Moreover, in the data set on NCI/ADR-RES cells, the “DOX fluorescence signals in cells (confocal imaging)” value is recorded as “Least amounts of fluorescence signals”. In data set [3] (after 74 h), the “amount of released DOX” value is 96.35%. The DOX released in data set [3] (first 9 h) was 92.14%. The IC50 in the data set with 4T1.2 cells came to 0.1867 µg/mL (≈ 0.343 µM).
